The subject of the first assay is TFEB. Briefly: TFEB nuclear translocation assay, HeLa wt cells. Type of assay: cell-based. Particulars: 2 hrs compound treatment, Table 1 does not say HeLa wt or TRPML1 KO. The essentials: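 HeLa wt, 2 hr compound, 37° C; 4% PFA fix; anti-TFEB (rabbit, 1:200, overnight 4° C) + Alexa 488 secondary, Hoechst. Imaged ×20, 4 fields/well. Readout: nuclear/ring Alexa 488 intensity ratio; AC50.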
As for `CN(C)S(=N)(=O)c1ccc(S(=O)(=O)Nc2cccc(F)c2N2CCC(CN3CC4CCC(C3)O4)CC2)cc1` (stereo not drawn) [Compound A-853, N-(2-(4-((8-oxa-3-azabicyclo[3.2.1]octan-3-yl)methyl)piperidin-1-yl)-3-fluorophenyl)-4-(N,N-dimethylsulfamidimidoyl)benzenesulfonamide], the AC50 – broadly, the midpoint of the concentration-response curve, whichever way the signal moves – was no more than 2 µM.

Still in this assay, the particulars now being: Homo sapiens, HeLa, 2 h, 2 hrs compound treatment, Table 1 does not say HeLa wt or TRPML1 KO.
With `CC(c1ccncc1N1CCC(CN2C[C@@H](C)O[C@@H](C)C2)CC1)S(=O)(=O)c1ccc(S(=O)(=O)N(C)C)cc1` (stereo partly drawn) [Compound A-850, 4-{1-[3-(4-{[(2R,6S)-2,6-dimethylmorpholin-4-yl]methyl}piperidin-1-yl)pyridin-4-yl]ethanesulfonyl}-N,N-dimethylbenzene-1-sulfonamide], the AC50 was in the range of 2.01 to 8 µM.

As to `O=S(=O)(Nc1ccccc1N1CCC(c2ccc(F)cc2F)CC1)c1ccc(S(=O)(=O)C(F)F)cc1` [Compound A-185, 4-difluoromethanesulfonyl-N-{2-[4-(2,4-difluorophenyl)piperidin-1-yl]phenyl}benzene-1-sulfonamide], the AC50 is no more than 2 µM.

`CN(C)S(=O)(=O)c1ccc(S(=O)(=O)N2C(=O)N(C3CCN(c4ccc(Cl)cc4F)CC3)C(=O)C2(C)C)cc1` [Compound A-294, 4-({3-[1-(4-chloro-2-fluorophenyl)piperidin-4-yl]-5,5-dimethyl-2,4-dioxoimidazolidin-1-yl}sulfonyl)-N,N-dimethylbenzene-1-sulfonamide] registered an AC50 of no less than 10 µM.

Consider `CC(C)C(=O)c1ccc(S(=O)(=O)Nc2ccccc2N2CCC3(CC2)COC(C)(C)C3)cc1` [Compound A-657, N-(2-{3,3-dimethyl-2-oxa-8-azaspiro[4.5]decan-8-yl}phenyl)-4-(2-methylpropanoyl)benzene-1-sulfonamide], for which the AC50 lay in the range of 8.01 to 9.99 µM.

As for `CN(C)S(=O)(=O)c1ccc(S(=O)(=O)Nc2ccccc2N2CCC(c3ccccc3C(=O)O)CC2)cc1` [Compound A-259, 2-(1-{2-[4-(dimethylsulfamoyl)benzenesulfonamido]phenyl}piperidin-4-yl)benzoic acid], the AC50 is no less than 10 µM.

For `CN(C)S(=O)(=O)c1ccc(C(Nc2cccc(Cl)c2N2CCOCC2)C(F)(F)F)cc1` (stereo not drawn) [Compound A-342, 4-(1-{[3-chloro-2-(morpholin-4-yl)phenyl]amino}-2,2,2-trifluoroethyl)-N,N-dimethylbenzene-1-sulfonamide], the AC50 fell in the range of 8.01 to 9.99 µM.

`CN(C)S(=O)(=O)c1ccc(S(=O)(=O)n2nc(C3CCN(c4c(F)cccc4F)CC3)c3c2CCNC3)cc1` [Compound A-533, 4-({3-[1-(2,6-difluorophenyl)piperidin-4-yl]-1H,4H,5H,6H,7H-pyrazolo[4,3-c]pyridin-1-yl}sulfonyl)-N,N-dimethylbenzene-1-sulfonamide] came in with an AC50 of 2.01 to 8 µM.

In turn, `COCC1(C)CCN(c2ccccc2NS(=O)(=O)c2ccc(C(F)F)cc2)CC1` [Compound A-620, 4-(difluoromethyl)-N-{2-[4-(methoxymethyl)-4-methylpiperidin-1-yl]phenyl}benzene-1-sulfonamide] showed an AC50 of no more than 2 µM.

In the case of `CC1(C)Cc2cc(S(=O)(=O)Nc3ccccc3N3CCN(C(=O)C(C)(C)C)CC3)ccc2O1` [Compound A-514, N-{2-[4-(2,2-dimethylpropanoyl)piperazin-1-yl]phenyl}-2,2-dimethyl-2,3-dihydro-1-benzofuran-5-sulfonamide], the AC50 is no more than 2 µM.

`CN(C)S(=O)(=O)c1ccc(S(=O)(=O)Cc2cccc(Cl)c2N2CCOCC2)cc1` [Compound A-327, 4-{[3-chloro-2-(morpholin-4-yl)phenyl]methanesulfonyl}-N,N-dimethylbenzene-1-sulfonamide] showed an AC50 of no less than 10 µM.

`CN(C)S(=O)(=O)c1ccc(S(=O)(=O)Nc2ccccc2N2CCN(CCF)CC2)cc1` [Compound A-559, N4-{2-[4-(2-fluoroethyl)piperazin-1-yl]phenyl}-N1,N1-dimethylbenzene-1,4-disulfonamide] showed a concentration at half-maximal activity (AC50) of 2.01 to 8 µM.

As for `CC(c1cncc(F)c1N1CCC(CN2CCC(F)(F)CC2)CC1)S(=O)(=O)c1ccc(S(=O)(=O)N(C)C)cc1` (stereo not drawn) [Compound A-996, 4-[1-(4-{4-[(4,4-difluoropiperidin-1-yl)methyl]piperidin-1-yl}-5-fluoropyridin-3-yl)ethanesulfonyl]-N,N-dimethylbenzene-1-sulfonamide], the AC50 was no more than 2 µM.

As to `CC(c1cccc(F)c1N1CCC(CN2CCC(F)(F)CC2)CC1)S(=O)(=O)c1ccc(S(=O)(=O)N(C)C)cc1` (stereo not drawn) [Compound A-801, 4-((1-(2-(4-((4,4-difluoropiperidin-1-yl)methyl)piperidin-1-yl)-3-fluorophenyl)ethyl)sulfonyl)-N,N-dimethylbenzenesulfonamide], the AC50 is no more than 2 µM.

Molecule `Cc1ccc([S+]([O-])Cc2ccccc2N2CCC(c3ccc(Cl)cc3F)CC2)cc1` (stereo not drawn) [Compound A-145, 4-(4-chloro-2-fluorophenyl)-1-(2-((p-tolylsulfinyl)methyl)phenyl)piperidine] showed an AC50 of no less than 10 µM.

Consider `CC(C)(C)C(=O)N1CCN(c2ccccc2NS(=O)(=O)Cc2ccc3c(c2)COCC3)CC1` [Compound A-501, 1-(3,4-dihydro-1H-2-benzopyran-7-yl)-N-{2-[4-(2,2-dimethylpropanoyl)piperazin-1-yl]phenyl}methanesulfonamide], for which the half-maximal activity concentration (AC50) lay within 2.01 to 8 µM.

`COCC1(C)CCN(c2ccccc2NS(=O)(=O)Cc2ccc(C)c(C)c2)CC1` [Compound A-642, 1-(3,4-dimethylphenyl)-N-{2-[4-(methoxymethyl)-4-methylpiperidin-1-yl]phenyl}methanesulfonamide] yielded an AC50 of no more than 2 µM.

Consider `CN(C)S(=O)(=O)c1ccc(S(=O)(=O)Nc2ccccc2N2CCN(c3ccc(Cl)cc3F)CC2=O)cc1` [Compound A-283, N4-{2-[4-(4-chloro-2-fluorophenyl)-2-oxopiperazin-1-yl]phenyl}-N1,N1-dimethylbenzene-1,4-disulfonamide], for which the AC50 was no less than 10 µM.

Turning to `CN(C)S(=O)(=O)c1ccc(S(=O)(=O)Nc2ccccc2N2CCC(CO)(c3ccc(F)cc3F)CC2)cc1` [Compound A-161, N4-{2-[4-(2,4-difluorophenyl)-4-(hydroxymethyl)piperidin-1-yl]phenyl}-N1,N1-dimethylbenzene-1,4-disulfonamide], the AC50 is 2.01 to 8 µM.

For `CC(c1cccc(F)c1N1CCC(CN2C[C@@H](C)O[C@@H](C)C2)CC1)S(=O)(=O)c1ccc(N=S(C)(C)=O)cc1` (stereo partly drawn) [Compound A-1002, [(4-{1-[2-(4-{[(2R,6S)-2,6-dimethylmorpholin-4-yl]methyl}piperidin-1-yl)-3-fluorophenyl]ethanesulfonyl}phenyl)imino]dimethyl-λ^6-sulfanone], the AC50 was no less than 10 µM.

Regarding `CN(C)S(=N)(=O)c1ccc(S(=O)(=O)Nc2ccc(F)cc2N2CCC(c3c(F)cccc3F)CC2)cc1` (stereo not drawn) [Compound A-226, 4-({2-[4-(2,6-difluorophenyl)piperidin-1-yl]-4-fluorophenyl}sulfamoyl)-N,N-dimethylbenzene-1-sulfonoimidamide], the AC50 was no more than 2 µM.

As to `CN(C)S(=O)(=O)c1ccc(S(=O)(=O)Nc2ccccc2N2CCC(O)(c3cc(Br)ncc3F)CC2)cc1` [Compound A-210, N4-{2-[4-(2-bromo-5-fluoropyridin-4-yl)-4-hydroxypiperidin-1-yl]phenyl}-N1,N1-dimethylbenzene-1,4-disulfonamide], the AC50 is no more than 2 µM.

In turn, `CN(C)S(=O)(=O)c1ccc(S(=O)(=O)Nc2ccccc2N2CCC(c3cccc(C(=O)O)c3)CC2)cc1` [Compound A-266, 3-(1-{2-[4-(dimethylsulfamoyl)benzenesulfonamido]phenyl}piperidin-4-yl)benzoic acid] yielded a half-maximal activity concentration (AC50) of no less than 10 µM.

In the case of `CC1(C)CC2(CCN(c3ccccc3NS(=O)(=O)c3ccc(OC(F)F)c(F)c3)CC2)CO1` [Compound A-667, 4-(difluoromethoxy)-N-(2-{3,3-dimethyl-2-oxa-8-azaspiro[4.5]decan-8-yl}phenyl)-3-fluorobenzene-1-sulfonamide], the AC50 lay in the range of 2.01 to 8 µM.

Turning to `O=S(=O)(Nc1cc(Cl)ccc1N1CCC(c2ccc(Cl)cc2F)CC1)c1ccc2c(c1)CCC2` [Compound A-313, N-{5-chloro-2-[4-(4-chloro-2-fluorophenyl)piperidin-1-yl]phenyl}-2,3-dihydro-1H-indene-5-sulfonamide], the AC50 was no more than 2 µM.

In turn, `CN(C)S(=O)(=O)c1ccc(S(=O)(=O)Nc2ccccc2N2CCC(C(C)(F)F)CC2)cc1` [Compound A-506, N4-{2-[4-(1,1-difluoroethyl)piperidin-1-yl]phenyl}-N1,N1-dimethylbenzene-1,4-disulfonamide] returned an AC50 of no more than 2 µM.

In turn, `COCC1(C)CCN(c2ccccc2NS(=O)(=O)c2ccc(F)c(C)c2)CC1` [Compound A-616, 4-fluoro-N-{2-[4-(methoxymethyl)-4-methylpiperidin-1-yl]phenyl}-3-methylbenzene-1-sulfonamide] came in with a concentration at half-maximal activity (AC50) of 2.01 to 8 µM.

Take `COC1(CN2C[C@@H](C)O[C@@H](C)C2)CCN(c2c(F)cccc2NS(=O)(=O)c2ccc(S(=O)(=O)N(C)C)cc2)CC1` [Compound A-786, N4-[2-(4-[(2R,6S)-2,6-dimethylmorpholin-4-yl]methyl-4-methoxypiperidin-1-yl)-3-fluorophenyl]-N1,N1-dimethylbenzene-1,4-disulfonamide]: the half-maximal activity concentration (AC50) was no more than 2 µM.

The molecule `C[C@@H]1CN(CC2CCN(c3c(F)cccc3[C@@H](C)S(=O)(=O)c3ccc(S(=O)(=O)N(C)C)cc3)CC2)C[C@H](C)O1` [Compound A-782, 4-[(1R)-1-[2-(4-{[(2R,6S)-2,6-dimethylmorpholin-4-yl]methyl}piperidin-1-yl)-3-fluorophenyl]ethanesulfonyl]-N,N-dimethylbenzene-1-sulfonamide] yielded an AC50 of no more than 2 µM.

For `Cc1nn(S(=O)(=O)c2ccc(S(=O)(=O)N(C)C)cc2)cc1N1CCC(c2ccc(Cl)cc2F)CC1` [Compound A-50, 4-((4-(4-(4-chloro-2-fluorophenyl)piperidin-1-yl)-3-methyl-1H-pyrazol-1-yl)sulfonyl)-N,N-dimethylbenzenesulfonamide], the AC50 lay within 2.01 to 8 µM.

The record behind these values is patent US20230104936A1, “TRPML MODULATORS” (Casma Therapeutics, Inc., priority 2019, published 2023).
